Assay results: US9359301B2, “Ethynyl derivatives” (Hoffmann-La Roche Inc., priority 2012, dated 2016)

Key:
[1] = target: T1, human mGlu5a receptor (Homo sapiens (Human), UniProt P41594); experiment: Intracellular Ca2+ mobilization assay (mGlu5 PAM assay); assay type: cell-based; conditions: for mGlu5 PAM EC50: HEK-293 cells, human mGlu5a, L-glutamate at EC20; for Activity profile: PAM = positive, NAM = negative allosteric modulator of mGlu5; for EC50 mGlu5 PAM assay: comparison table; for Efficacy: maximal response in % of maximal stimulatory effect of saturating L-glutamate
Protocol: A monoclonal HEK-293 cell line stably transfected with a cDNA encoding for the human mGlu5a receptor was generated; for the work with mGlu5 Positive Allosteric Modulators (PAMs), a cell line with low receptor expression levels and low constitutive receptor activity was selected to allow the differentiation of agonistic versus PAM activity. Cells were cultured according to standard protocols (Freshney, 2000) in Dulbecco's Modified Eagle Medium with high glucose supplemented with 1 mM glutamine, 10% (vol/vol) heat-inactivated bovine calf serum, Penicillin/Streptomycin, 50 μg/ml hygromycin and 15 μg/ml blasticidin (all cell culture reagents and antibiotics from Invitrogen, Basel, Switzerland).
About 24 hrs before an experiment, 5×10^4 cells/well were seeded in poly-D-lysine coated, black/clear-bottomed 96-well plates. The cells were loaded with 2.5 μM Fluo-4AM in loading buffer (1×HBSS, 20 mM HEPES) for 1 hr at 37° C. and washed five times with loading buffer. The cells were transferred into a Functional Drug Screening System 7000 (Hamamatsu, Paris, France), and 11 half logarithmic serial dilutions of test compound at 37° C. were added and the cells were incubated for 10-30 min. with on-line recording of fluorescence. Following this pre-incubation step, the agonist L-glutamate was added to the cells at a concentration corresponding to EC20 (typically around 80 μM) with on-line recording of fluorescence; in order to account for day-to-day variations in the responsiveness of cells, the EC20 of glutamate was determined immediately ahead of each experiment by recording of a full dose-response curve of glutamate.
Responses were measured as peak increase in fluorescence minus basal (i.e. fluorescence without addition of L-glutamate), normalized to the maximal stimulatory effect obtained with saturating concentrations of L-glutamate. Graphs were plotted with the % maximal stimulatory using XLfit, a curve fitting program that iteratively plots the data using Levenburg Marquardt algorithm. The single site competition analysis equation used was y=A+((B−A)/(1+((x/C)D))), where y is the % maximal stimulatory effect, A is the minimum y, B is the maximum y, C is the EC50, x is the log 10 of the concentration of the competing compound and D is the slope of the curve (the Hill Coefficient). From these curves the EC50 (concentration at which half maximal stimulation was achieved), the Hill coefficient as well as the maximal response in % of the maximal stimulatory effect obtained with saturating concentrations of L-glutamate were calculated.
A depression of the signal observed after addition of the EC20 concentration of L-glutamate was indicative of an inhibitory activity of the test compound.

[2] = target: T1, human mGlu5a receptor; experiment: MPEP binding assay ([3H]MPEP displacement); conditions: for EC50: [3H]MPEP 2 nM, EBNA cell membranes, 1 h at 4° C., read-out: mGlu5-MPEP binding EC50; for Ki: comparison table
Protocol: For binding experiments, cDNA encoding human mGlu 5a receptor was transiently transfected into EBNA cells using a procedure described by Schlaeger and Christensen [Cytotechnology 15:1-13 (1998)]. Cell membrane homogenates were stored at −80° C. until the day of assay where upon they were thawed and resuspended and polytronised in 15 mM Tris-HCl, 120 mM NaCl, 100 mM KCl, 25 mM CaCl2, 25 mM MgCl2 binding buffer at pH 7.4 to a final assay concentration of 20 μg protein/well.
Saturation isotherms were determined by addition of twelve [^3H]MPEP concentrations (0.04-100 nM) to these membranes (in a total volume of 200 μl) for 1 h at 4° C. Competition experiments were performed with a fixed concentration of [^3H]MPEP (2 nM) and IC50 values of test compounds evaluated using 11 concentrations (0.3-10,000 nM). Incubations were performed for 1 h at 4° C.
At the end of the incubation, membranes were filtered onto unifilter (96-well white microplate with bonded GF/C filter preincubated 1 h in 0.1% PEI in wash buffer, Packard BioScience, Meriden, Conn.) with a Filtermate 96 harvester (Packard BioScience) and washed 3 times with cold 50 mM Tris-HCl, pH 7.4 buffer. Nonspecific binding was measured in the presence of 10 μM MPEP. The radioactivity on the filter was counted (3 min) on a Packard Top-count microplate scintillation counter with quenching correction after addition of 45 μl of microscint 40 (Canberra Packard S. A., Zürich, Switzerland) and shaking for 20 min.

T1 sequence (P41594 other isoform, or with tags, fused parts or gaps): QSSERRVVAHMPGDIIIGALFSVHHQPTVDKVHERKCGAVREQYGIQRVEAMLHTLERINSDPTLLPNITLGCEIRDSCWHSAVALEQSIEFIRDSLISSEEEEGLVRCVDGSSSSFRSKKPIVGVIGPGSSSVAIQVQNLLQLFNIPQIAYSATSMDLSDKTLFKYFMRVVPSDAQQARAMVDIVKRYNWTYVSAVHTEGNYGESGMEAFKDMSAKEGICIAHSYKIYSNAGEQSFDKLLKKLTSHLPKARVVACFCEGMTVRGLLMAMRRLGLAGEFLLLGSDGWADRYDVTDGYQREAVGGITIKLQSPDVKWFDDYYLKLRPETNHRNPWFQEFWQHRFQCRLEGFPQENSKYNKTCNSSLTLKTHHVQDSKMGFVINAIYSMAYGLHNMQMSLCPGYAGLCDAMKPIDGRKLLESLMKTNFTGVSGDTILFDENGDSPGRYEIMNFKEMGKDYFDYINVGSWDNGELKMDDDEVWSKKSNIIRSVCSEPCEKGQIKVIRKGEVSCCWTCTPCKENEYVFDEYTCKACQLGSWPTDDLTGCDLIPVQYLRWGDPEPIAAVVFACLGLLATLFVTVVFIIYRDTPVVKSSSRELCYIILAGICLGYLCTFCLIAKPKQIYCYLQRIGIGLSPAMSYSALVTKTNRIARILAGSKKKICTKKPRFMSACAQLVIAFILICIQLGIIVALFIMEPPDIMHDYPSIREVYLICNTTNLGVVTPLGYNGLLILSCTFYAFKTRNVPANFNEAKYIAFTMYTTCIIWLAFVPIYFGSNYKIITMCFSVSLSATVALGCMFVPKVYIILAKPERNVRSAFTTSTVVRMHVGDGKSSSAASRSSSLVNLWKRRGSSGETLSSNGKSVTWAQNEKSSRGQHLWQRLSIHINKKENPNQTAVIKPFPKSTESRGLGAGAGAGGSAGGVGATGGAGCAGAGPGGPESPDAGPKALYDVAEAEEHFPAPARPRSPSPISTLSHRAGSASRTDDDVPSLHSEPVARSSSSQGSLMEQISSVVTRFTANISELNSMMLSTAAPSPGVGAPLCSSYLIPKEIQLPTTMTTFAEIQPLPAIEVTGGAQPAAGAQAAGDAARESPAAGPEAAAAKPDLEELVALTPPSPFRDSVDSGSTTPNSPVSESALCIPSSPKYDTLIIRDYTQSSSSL

Q: For CCN(C(=O)c1ccc(C#Cc2cccc(Cl)c2)cn1)C(C)(C)C [Example 2, 5-(3-Chloro-phenylethynyl)-pyridine-2-carboxylic acid tert-butyl-ethyl-amide], which “mGlu5 PAM EC50” value [1] is on record?
A: Its value is “in- active”.

Q: And the Activity profile [1]?
A: Its Activity profile is “NAM”.

Q: And the “EC50 mGlu5 PAM assay” value [1]?
A: The value was “inactive”.

Q: What about the EC50 [2] of the same compound?
A: The EC50 was 24 nM.

Q: And the Ki [2]?
A: The Ki was 24 nM.

Q: Which results are given for CCN(C(=O)c1ncc(C#Cc2cccc(F)c2)cn1)C(C)(C)C [Example 3, 5-(3-Fluoro-phenylethynyl)-pyrimidine-2-carboxylic acid tert-butyl-ethyl-amide]?
A: mGlu5 PAM EC50 [1]: in- active; Activity profile [1]: NAM; EC50 mGlu5 PAM assay [1]: inactive; EC50 [2]: 94 nM; Ki [2]: 94 nM

Q: Which results are given for CN(C(=O)c1ccc(C#Cc2cccc(F)c2)cn1)C(C)(C)C [Reference compound 1, reference compound]?
A: Activity profile [1]: PAM; Efficacy [1]: 64%; EC50 [2]: 29 nM

Q: What does the source list for CN(C(=O)c1ncc(C#Cc2cccc(F)c2)cn1)C(C)(C)C [Reference compound 2, reference compound]?
A: Activity profile [1]: PAM; Efficacy [1]: 55%; EC50 [2]: 51 nM; Ki [2]: 51 nM

Q: For CCN(C(=O)c1ncc(C#Cc2cccc(Cl)c2)cn1)C(C)(C)C [Example 4, 5-(3-Chloro-phenylethynyl)-pyrimidine-2-carboxylic acid tert-butyl-ethyl-amide], which “mGlu5 PAM EC50” value [1] is on record?
A: Its value is “in- active”.

Q: And the Activity profile [1]?
A: Its Activity profile is “NAM”.

Q: And the “EC50 mGlu5 PAM assay” value [1]?
A: Its value is “inactive”.

Q: What about the EC50 [2] of the same compound?
A: Its EC50 is 46 nM.

Q: What about the Ki [2] of the same compound?
A: The Ki was 46 nM.

Q: With CCN(C(=O)c1ccc(C#Cc2cccc(F)c2)cn1)C(C)(C)C [Example 1, 5-(3-Fluoro-phenylethynyl)-pyridine-2-carboxylic acid tert-butyl-ethyl-amide] as the compound, how does the “mGlu5 PAM EC50” value [1] read?
A: Its value is “in- active”.

Q: And the Activity profile [1]?
A: Its Activity profile is “NAM”.

Q: And the “EC50 mGlu5 PAM assay” value [1]?
A: The value was “inactive”.

Q: What about the EC50 [2] of the same compound?
A: Its EC50 is 42 nM.

Q: What about the Ki [2] of the same compound?
A: The Ki was 42 nM.
